{"source": "paper PMC11049802", "about": "(International Journal of Molecular Sciences, 2024)", "target": "E. coli nitroreductase A (NfsA) (Escherichia coli, UniProt P17117)", "sequence (P17117 whole entry)": "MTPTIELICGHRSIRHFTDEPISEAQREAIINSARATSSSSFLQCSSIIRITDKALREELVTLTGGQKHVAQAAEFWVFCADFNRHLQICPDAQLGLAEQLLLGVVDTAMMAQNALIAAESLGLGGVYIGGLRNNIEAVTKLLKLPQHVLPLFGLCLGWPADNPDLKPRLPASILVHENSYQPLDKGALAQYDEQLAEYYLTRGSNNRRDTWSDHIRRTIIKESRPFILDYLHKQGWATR", "experiment": "steady-state kinetics; competitive inhibition versus NADPH (also reduced as a substrate)", "assay_type": "biochemical"}
{"smiles": "CC(=O)c1ccc[n+]([C@@H]2O[C@H](COP(=O)([O-])OP(=O)(O)OC[C@H]3O[C@@H](n4cnc5c(N)ncnc54)[C@H](OP(=O)(O)O)[C@@H]3O)[C@@H](O)[C@H]2O)c1", "note": "[APADP+]", "values": [{"measurement": "Ki", "result": "150 ± 12", "unit": "µM"}]}
